Measurements from patent US12077534B2, “Aza-heterobicyclic inhibitors of MAT2A and methods of use for treating cancer” (Les Laboratoires Servier SAS, priority 2018, dated 2024).

Assays:
[1] = tested on: MAT2A activity (SAM) in HCT116 cells with deleted MTAP gene; experiment: Cellular assay of target engagement (SAM) by LC-MS/MS; type: cell-based; settings: Homo sapiens, HCT-116; HCT116 MTAP −/−, 72 hrs; read-out: Cell 72 h SAM Inhibition (MTAP −/−)
How it was run: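 HCT116 MTAP-deleted cells treated with 10-point 3-fold DMSO serial dilutions of compound for 72 hrs at 37° C. Cells lysed in cold 80% methanol/acetic acid extraction buffer with d3-SAM internal standard; SAM quantified by LC-MS/MS (MRM m/z 399.2→250.1).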

[2] = target: T1, MAT2A homodimer (Homo sapiens, UniProt P31153); experiment: MAT2A biochemical assay (phosphate release, PiColorLock Gold); settings: recombinant MAT2A homodimer, 60 min pre-incubation, 25° C.; read-out: Enzyme Inhibition
T1 construct: inferred from Ni sepharose purification and imidazole elution; made in house; host or cells: SF9 insect cells, recombinant baculovirus (Bac to Bac, pFASTBAC1)
T1 sequence (P31153 whole entry): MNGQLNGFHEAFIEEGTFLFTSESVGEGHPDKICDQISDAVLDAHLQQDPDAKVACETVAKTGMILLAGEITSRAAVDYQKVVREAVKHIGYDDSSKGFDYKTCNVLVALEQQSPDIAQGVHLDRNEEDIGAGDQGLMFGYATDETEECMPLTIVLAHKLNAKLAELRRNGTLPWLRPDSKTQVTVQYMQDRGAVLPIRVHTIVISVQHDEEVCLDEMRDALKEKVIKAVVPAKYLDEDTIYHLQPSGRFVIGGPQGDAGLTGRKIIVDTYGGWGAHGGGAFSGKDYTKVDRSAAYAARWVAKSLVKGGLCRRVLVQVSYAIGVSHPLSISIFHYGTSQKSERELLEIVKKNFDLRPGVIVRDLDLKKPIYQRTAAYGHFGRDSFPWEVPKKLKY
How it was run: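 Baculovirus/Sf9-expressed, Ni-purified MAT2A homodimer (4 µg/mL in pH 8.0 Tris/KCl/MgCl2 buffer) preincubated 60 min at 25 °C with compound (2% DMSO final). Substrate mix of 500 µM ATP and 400 µM L-methionine added; 60 min at 25 °C; released phosphate quantified colorimetrically against a phosphate standard curve.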

[3] = tested on: HCT116 MTAP+/+; experiment: Inhibition of cellular proliferation (Cell Titer Glo), HCT116 MTAP+/+; type: cell-based; settings: Homo sapiens, HCT-116, 96 h, 4 days, read-out: 4 Day Relative Growth Inhibition (MTAP +/+)
How it was run: (§1)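 Isogenic HCT116 MTAP+/+ and MTAP−/− cells treated 24 h after plating with 10-point 3-fold dilutions, then grown 4 days at 37 °C/5% CO2. ATP content read by Cell Titer Glo luminescence, blank-subtracted and normalized to 0.2% DMSO control, plotted as percent proliferation change versus log molar concentration.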

[4] = tested on: HCT116 MTAP−/−; experiment: Inhibition of cellular proliferation (Cell Titer Glo), HCT116 MTAP-/-; type: cell-based; settings: Homo sapiens, HCT-116, 96 h, 4 days, read-out: 4 Day Relative Growth Inhibition (MTAP −/−)
How it was run: as §1

Structure (SMILES)	IC50 [1]	IC50 [2]	IC50 [3]	IC50 [4]
[2H]C([2H])([2H])Oc1ccc(-c2c(=O)n(-c3ccc4nn(C)cc4c3)nc3ccc(OCCF)nc23)cc1 [Example 157]	100 to 1000 nM	< 100 nM	≥ 1000 nM	100 to 1000 nM
CCSc1ccc2nn(-c3ccc4nn(C)cc4c3)c(=O)c(-c3ccc(OC(F)F)cc3)c2n1 [Example 158]	< 100 nM	< 100 nM	≥ 1000 nM	< 100 nM
CCNc1ccc2nn(-c3ccc4nn(C)cc4c3)c(=O)c(-c3ccc(OC(F)F)cc3)c2n1 [Example 159]	< 100 nM	< 100 nM	≥ 1000 nM	< 100 nM
Cn1cc2cc(-n3nc4ccc(NCC(F)(F)F)nc4c(-c4ccc(OC(F)F)cc4)c3=O)ccc2n1 [Example 160]	< 100 nM	< 100 nM	≥ 1000 nM	< 100 nM
[2H]C([2H])([2H])C([2H])([2H])Oc1ccc2nn(-c3ccc4nn(C)cc4c3)c(=O)c(-c3ccc(OC(F)F)cc3)c2n1 [Example 161]	< 100 nM	< 100 nM	≥ 1000 nM	< 100 nM
Cn1cc2cc(-n3nc4ccc(NC5CC5)nc4c(-c4ccc(OC(F)F)cc4)c3=O)ccc2n1 [Example 162]	< 100 nM	< 100 nM	≥ 1000 nM	< 100 nM
Cn1cc2cc(-n3nc4ccc(N5CCCC5)nc4c(-c4ccc(OC(F)F)cc4)c3=O)ccc2n1 [Example 163]	> 1000 nM	< 100 nM	≥ 1000 nM	≥ 1000 nM
Cn1cc2cc(-n3nc4ccc(SCC(F)(F)F)nc4c(-c4ccc(OC(F)F)cc4)c3=O)ccc2n1 [Example 165]	< 100 nM	< 100 nM	100 to 1000 nM	< 100 nM
Cc1c2cc(-n3nc4ccc(OCC(F)F)nc4c(-c4ccc(OC(F)F)cc4)c3=O)ccc2nn1C [Example 166, 6-(2,2-difluoroethoxy)-4-(4-(difluoromethoxy)phenyl)-2-(2,3-dimethyl-2H-indazol-5-yl)pyrido[3,2-c]pyridazin-3(2H)-one]	< 100 nM	< 100 nM	≥ 1000 nM	< 100 nM
Cn1cnc2ccc(-n3nc4ccc(OCC(F)F)nc4c(-c4ccc(OC(F)F)cc4)c3=O)cc21 [Example 167, 6-(2,2-difluoroethoxy)-4-(4-(difluoromethoxy)phenyl)-2-(1-methyl-1H-benzo[d]imidazol-6-yl)pyrido[3,2-c]pyridazin-3(2H)-one]	< 100 nM	< 100 nM	≥ 1000 nM	< 100 nM
CCOc1ccc2nn(-c3ccc4ncccc4c3)c(=O)c(-c3ccc(Cl)cc3)c2n1 [Example 168]	< 100 nM	< 100 nM	≥ 1000 nM	100 to 1000 nM
O=c1c(-c2ccc(OC(F)F)cc2)c2nc(OCC(F)F)ccc2nn1-c1ccc2ncsc2c1 [Example 169]	< 100 nM	< 100 nM	< 100 nM	< 100 nM
O=c1c(-c2ccc(OC(F)F)cc2)c2nc(OCC(F)F)ccc2nn1-c1ccc2nccn2c1 [Example 170]	< 100 nM	< 100 nM	≥ 1000 nM	100 to 1000 nM
COc1c2cc(-n3nc4ccc(OCC(F)F)nc4c(-c4ccc(OC(F)F)cc4)c3=O)ccc2nn1C [Example 171]	< 100 nM	< 100 nM	≥ 1000 nM	< 100 nM
COc1nc2ccc(-n3nc4ccc(OCC(F)F)nc4c(-c4ccc(OC(F)F)cc4)c3=O)cc2n1C [Example 172]	< 100 nM	< 100 nM	≥ 1000 nM	< 100 nM
Cc1c2cc(-n3nc4ccc(OCC(F)F)nc4c(-c4ccc(Cl)cc4)c3=O)ccc2nn1C [Example 173]	< 100 nM	< 100 nM	100 to 1000 nM	< 100 nM
COc1c2cc(-n3nc4ccc(OCC(F)F)nc4c(-c4ccc(Cl)cc4)c3=O)ccc2nn1C [Example 174]	< 100 nM	< 100 nM	≥ 1000 nM	< 100 nM
[2H]C([2H])([2H])Oc1c2cc(-n3nc4ccc(OCC(F)F)nc4c(-c4ccc(OC(F)F)cc4)c3=O)ccc2nn1C [Example 175]	< 100 nM	< 100 nM	100 to 1000 nM	< 100 nM
O=c1c(-c2ccc(OC(F)F)cc2)c2nc(OCC(F)F)ccc2nn1-c1ccc2nnccc2c1 [Example 176]	< 100 nM	< 100 nM	100 to 1000 nM	100 to 1000 nM

Other lines, results leading:

IC50 [1]	IC50 [2]	IC50 [3]	IC50 [4]	Structure (SMILES)
< 100 nM	< 100 nM	100 to 1000 nM	< 100 nM	O=c1c(-c2ccc(OC(F)F)cc2)c2nc(OCC(F)F)ccc2nn1-c1ccc2c(c1)OCCO2 [Example 177]
< 100 nM	< 100 nM	100 to 1000 nM	< 100 nM	O=c1c(-c2ccc(OC(F)F)cc2)c2nc(OCC(F)F)ccc2nn1-c1ccc2c(c1)CCO2 [Example 178]
< 100 nM	< 100 nM	≥ 1000 nM	100 to 1000 nM	O=c1c(-c2ccc(OC(F)F)cc2)c2nc(OCC(F)F)ccc2nn1-c1ccc2ncncc2c1 [Example 179]
< 100 nM	< 100 nM	≥ 1000 nM	< 100 nM	CN1CCOc2ccc(-n3nc4ccc(OCC(F)F)nc4c(-c4ccc(OC(F)F)cc4)c3=O)cc21 [Example 180]
< 100 nM	< 100 nM	100 to 1000 nM	< 100 nM	Cn1nc2ccc(-n3nc4ccc(OCC(F)F)nc4c(-c4ccc(OC(F)F)cc4)c3=O)cc2n1 [Example 182]
< 100 nM	< 100 nM	100 to 1000 nM	< 100 nM	O=c1c(-c2ccc(OC(F)F)cc2)c2nc(OCC(F)F)ccc2nn1-c1ccc2ncccc2c1 [Example 183]
< 100 nM	< 100 nM	≥ 1000 nM	100 to 1000 nM	O=c1c(-c2ccc(OC(F)F)cc2)c2nc(OCC(F)F)ccc2nn1-c1ccc2nncn2c1 [Example 184]
100 to 1000 nM	< 100 nM	≥ 1000 nM	≥ 1000 nM	COC1CC=C(n2nc3ccc(OCC(F)F)nc3c(-c3ccc(OC(F)F)cc3)c2=O)CC1 (centres unmarked) [Example 187]
100 to 1000 nM	< 100 nM	≥ 1000 nM	100 to 1000 nM	O=c1c(-c2ccc(OC(F)F)cc2)c2nc(OCC(F)F)ccc2nn1-c1ccncc1 [Example 188]
100 to 1000 nM	< 100 nM	≥ 1000 nM	100 to 1000 nM	CNC(=O)c1ccc(-n2nc3ccc(OCC(F)F)nc3c(-c3ccc(OC(F)F)cc3)c2=O)cc1 [Example 189]
100 to 1000 nM	100 to 1000 nM	≥ 1000 nM	≥ 1000 nM	O=c1c(-c2ccc(OC(F)F)cc2)c2nc(OCC(F)F)ccc2nn1-c1ccc(F)cc1 [Example 191]
< 100 nM	< 100 nM	100 to 1000 nM	100 to 1000 nM	O=c1c(-c2ccc(OC(F)F)cc2)c2nc(OCC(F)F)ccc2nn1-c1ccc2nccnc2c1 [Example 192]
100 to 1000 nM	< 100 nM	≥ 1000 nM	100 to 1000 nM	O=c1c(-c2ccc(OC(F)F)cc2)c2nc(OCC(F)F)ccc2nn1-c1cn[nH]c1 [Example 193]
